According to US20110207726A1, “Inhibitors of Human Cathepsin L, Cathepsin B, and Cathepsin S” (The Trustees of the University of Pennsylvania, priority 2008, published 2011):

Tests used:
Assay type in all cases: biochemical
human liver cathepsin L = molecular target: T1, human liver cathepsin L (Homo sapiens, UniProt P07711); experiment: Cathepsin L assay, IC50 determination; details: Table 1; read-out: IC50 Cat L
T1 construct: 8.7 ng/mL human liver cathepsin L (Calbiochem 219402); purchased Calbiochem 219402; host or cells: human liver
Description: Assay buffer consisted of 20 mM sodium acetate, 1 mM ethylenediaminetetraacetic acid (EDTA) and 5 mM cysteine, pH 5.5. Cathepsin L was incubated in assay buffer for 30 minutes prior to dispensing into wells to allow for efficient reduction of the active site cysteine required for full enzymatic activity.
Upon activation, cathepsin L (300 pM, 8.7 ng/mL) was incubated with 1 microM Z-Phe-Arg-AMC substrate (Sigma C9521) and test compound in […] of assay buffer for 1 hour at room temperature.
All reactions were performed in 20 mM sodium acetate buffer containing 5 mM cysteine and 1 mM EDTA, pH 5.5. Reaction progress was monitored using the Envision microplate reader. IC50 values were measured in triplicate.

Human liver cathepsin B = molecular target: T2, Human liver cathepsin B (Homo sapiens, UniProt P07858); experiment: Cathepsin B assay, IC50 determination; details: Table 1; read-out: IC50 Cat B
T2 construct: Human liver cathepsin B (Calbiochem 219362, 65 ng/mL); purchased Calbiochem 219362; host or cells: human liver
Description: (§1) Human spleen cathepsin S (Calbiochem 219344, 40 ng/mL) was assayed using 15 microM Z-Phe-Arg-AMC substrate. Human liver cathepsin B (Calbiochem 219362, 65 ng/mL) was assayed using 15 microM Z-Arg-Arg-AMC substrate (Bachem I-1135). All reactions were performed in 20 mM sodium acetate buffer containing 1 mM EDTA and 5 mM cysteine, pH 5.5.
(§2) Compounds were serially diluted in DMSO and transferred into a 96-well Corning 3686 assay microplate to give a 16-point two-fold serial dilution dose response ranging from 25 microM to 760 pM. Human liver cathepsin L (Calbiochem 219402) was activated by incubating with assay buffer for 30 min. Upon activation, cathepsin L (300 pM, 8.7 ng/mL) was incubated with 1 microM Z-Phe-Arg-AMC substrate (Sigma C9521) and test compound in […] of assay buffer for 1 hour at room temperature. Fluorescence of AMC released by enzyme-catalyzed hydrolysis of Z-Phe-Arg-AMC was read on a PerkinElmer Envision microplate reader (excitation 355 nm, emission 460 nm). Data were scaled using internal controls and fitted to a four-parameter logistic model (IDBS XLfit equation 205) to obtain IC50 values in triplicate.
(§3) Compound No. 1 was assayed for inhibition against papain and cathepsins B, G, K, S, and V. Papain from Carica papaya (Calbiochem 5125, 11 ng/mL), human cathepsin K (Calbiochem 342001, 35 ng/mL), human spleen cathepsin S (Calbiochem 219344, 40 ng/mL), and human cathepsin V (Calbiochem 219467, 39 ng/ml) were assayed using Z-Phe-Arg-AMC substrate at 20 μM, 20 μM, 15 μM, and 1 μM, respectively. Human liver cathepsin B (Calbiochem 219362, 65 ng/mL) was assayed using 15 μM Z-Arg-Arg-AMC substrate (Bachem I-1135). Human neutrophil cathepsin G (Calbiochem 219373, 4.2 μg/mL) was assayed using 15 μM Suc-Ala-Ala-Pro-Phe-AMC substrate (Sigma S9761). All reactions were performed in 20 mM sodium acetate buffer containing 5 mM cysteine and 1 mM EDTA, pH 5.5. Reaction progress was monitored using the Envision microplate reader. IC50 values were measured in triplicate.

Human spleen cathepsin S = molecular target: T3, Human spleen cathepsin S (Homo sapiens, UniProt P25774); experiment: Cathepsin S assay, IC50 determination; details: Table 1; read-out: IC50 Cat S
T3 construct: Human spleen cathepsin S (Calbiochem 219344, 40 ng/mL); purchased Calbiochem 219344; host or cells: human spleen
Description: as §1, §2, §3

T1 sequence (P07711 114-288 limits assumed): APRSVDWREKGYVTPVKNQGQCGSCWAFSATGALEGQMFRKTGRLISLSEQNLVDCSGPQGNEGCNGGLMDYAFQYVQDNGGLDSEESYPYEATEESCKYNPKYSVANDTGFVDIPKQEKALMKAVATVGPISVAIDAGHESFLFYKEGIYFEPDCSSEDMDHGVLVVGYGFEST
T1 sequence (P07711 292-333 limits assumed): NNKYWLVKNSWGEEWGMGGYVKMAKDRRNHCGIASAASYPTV
T3 sequence (P25774 115-331): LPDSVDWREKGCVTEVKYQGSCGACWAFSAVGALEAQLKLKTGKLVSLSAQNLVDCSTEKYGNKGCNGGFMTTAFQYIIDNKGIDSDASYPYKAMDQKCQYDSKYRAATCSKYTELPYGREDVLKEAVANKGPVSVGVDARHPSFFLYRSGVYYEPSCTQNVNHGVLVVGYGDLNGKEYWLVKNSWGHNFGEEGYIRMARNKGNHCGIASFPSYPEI

SMILES | IC50 (human liver cathepsin L) [nM] | IC50 (Human liver cathepsin B) [µM] | IC50 (Human spleen cathepsin S) [nM]
CC(C)[C@H](NC(=O)OC(C)(C)C)C(=O)NNC(=O)SCC(=O)Nc1ccc2c(c1)CCCC2 [Compound No. 24] | 110 | > 25 | 620
C[C@H](NC(=O)OC(C)(C)C)C(=O)NNC(=O)SCC(=O)N1CCCc2ccccc21 [Compound No. 26] | ≥ 25000 | > 25 | > 25000
CCc1ccccc1NCCSC(=O)NNC(=O)[C@H](CC(C)C)NC(=O)OC(C)(C)C [Compound No. 30] | > 25000 | > 25 | > 25000
CC(C)C[C@H](NC(=O)OC(C)(C)C)C(=O)NNC(=O)SCC(=O)N1CCCc2ccccc21 [Compound No. 31] | 1640 | 2.72 | 1640
CCc1ccccc1NC(=O)CSC(=O)NNC(=O)[C@H](Cc1ccc(OCc2ccccc2)cc1)NC(=O)OC(C)(C)C [Compound No. 36] | 830 | 5.08 | 2830
CC(C)(C)OC(=O)N[C@@H](Cc1ccc(OCc2ccccc2)cc1)C(=O)NNC(=O)SCC(=O)Nc1ccccc1[N+](=O)[O-] [Compound No. 38] | 590 | 2.77 | 2080
CC(C)(C)OC(=O)N[C@@H](Cc1ccc(OCc2ccccc2)cc1)C(=O)NNC(=O)SCC(=O)N1CCOc2ccccc21 [Compound No. 41] | 1560 | 3.03 | 3980
CCOC(=O)c1ccc(NC(=O)CSC(=O)NNC(=O)[C@H](Cc2ccc(OCc3ccccc3)cc2)NC(=O)OC(C)(C)C)cc1 [Compound No. 43] | 140 | > 25 | 1080
CC(C)(C)OC(=O)N[C@@H](COCc1ccccc1)C(=O)NNC(=O)SCC(=O)N1CCCc2ccccc21 [Compound No. 47] | 1510 | 13.2 | 2640
CCc1ccccc1NC(=O)CSC(=O)NNC(=O)[C@@H](COCc1ccccc1)NC(=O)OC(C)(C)C [Compound No. 48] | 15400 | > 25 | 4420
CC(C)(C)OC(=O)N[C@@H](COCc1ccccc1)C(=O)NNC(=O)SCC(=O)NCCc1ccccc1 [Compound No. 51] | 510 | > 25 | 650
CC(C)(C)OC(=O)N[C@@H](COCc1ccccc1)C(=O)NNC(=O)SCC(=O)NCCc1ccc(Br)cc1 [Compound No. 52] | 580 | > 25 | 910
CC(C)(C)OC(=O)N[C@@H](COCc1ccccc1)C(=O)NNC(=O)SCC(=O)NCCc1c[nH]c2ccccc12 [Compound No. 53] | 380 | > 25 | 920
CC(C)(C)OC(=O)N[C@@H](COCc1ccccc1)C(=O)NNC(=O)SCC(=O)Nc1ccccc1[N+](=O)[O-] [Compound No. 55] | 700 | 5.07 | 1440
CCOC(=O)c1cccc(NC(=O)CSC(=O)NNC(=O)[C@H](COCc2ccccc2)NC(=O)OC(C)(C)C)c1 [Compound No. 56] | 430 | > 25 | 1640
CC(C)(C)OC(=O)N[C@@H](CCCCNC(=O)OCc1ccccc1)C(=O)NNC(=O)SCC(=O)N1CCCc2ccccc21 [Compound No. 57] | > 25000 | 4.35 | 5150
CCc1ccccc1NC(=O)CSC(=O)NNC(=O)CNC(=O)OC(C)(C)C [Compound No. 64] | > 25000 | ≥ 25 | > 25000
CC(C)(C)OC(=O)N[C@@H](Cc1ncc[nH]1)C(=O)NNC(=O)SCC(=O)N1CCCc2ccccc21 [Compound No. 66] | > 25000 | 11.6 | > 25000
CCc1ccccc1NC(=O)CSC(=O)NNC(=O)[C@H](C)CO [Compound No. 67] | > 25000 | > 25 | > 25000
CCc1ccccc1NC(=O)CSC(=O)NNC(=O)[C@@H](C)CO [Compound No. 69] | > 25000 | > 25 | > 25000
C[C@@H](CO)C(=O)NNC(=O)SCC(=O)N1CCCc2ccccc21 [Compound No. 70] | > 25000 | > 25 | > 25000

Second part, the compound after the results:

IC50 (human liver cathepsin L) [nM] | IC50 (Human liver cathepsin B) [µM] | IC50 (Human spleen cathepsin S) [nM] | SMILES
≥ 25000 | > 25 | > 25000 | CCc1ccccc1NC(=O)CSC(=O)NNC(=O)[C@H](C)NC(=O)OC(C)(C)C [Compound No. 25]
≥ 25000 | > 25 | > 25000 | CCc1ccccc1NC(=O)CSC(=O)NNC(=O)[C@H](CCC(=O)O)NC(=O)OC(C)(C)C [Compound No. 27]
1090 | 2.63 | 1650 | CCc1ccccc1NC(=O)CSC(=O)NNC(=O)[C@H](CC(C)C)NC(=O)OC(C)(C)C [Compound No. 29]
> 25000 | > 25 | > 25000 | CCc1ccccc1NC(=O)CSC(=O)NNC(=O)[C@@H]1CCCN1C(=O)OC(C)(C)C [Compound No. 32]
> 25000 | > 25 | > 25000 | CC(C)(C)OC(=O)N1CCC[C@H]1C(=O)NNC(=O)SCC(=O)N1CCCc2ccccc21 [Compound No. 33]
> 25000 | > 25 | > 25000 | CCc1ccccc1NCCSC(=O)NNC(=O)[C@H](Cc1ccccc1)NC(=O)OC(C)(C)C [Compound No. 35]
86 | 3.19 | 1310 | CC(C)(C)OC(=O)N[C@@H](Cc1ccc(OCc2ccccc2)cc1)C(=O)NNC(=O)SCC(=O)N1CCc2ccccc2C1 [Compound No. 39]
700 | 3.12 | 8000 | CC(C)(C)OC(=O)N[C@@H](Cc1ccc(OCc2ccccc2)cc1)C(=O)NNC(=O)SCC(=O)N1CCc2ccccc21 [Compound No. 40]
13700 | 3.67 | 3320 | CCc1ccccc1NC(=O)CSC(=O)NNC(=O)[C@@H](NC(=O)OC(C)(C)C)C(C)OCc1ccccc1 (stereo partly drawn) [Compound No. 44]
> 25000 | 4.35 | 5150 | CC(OCc1ccccc1)[C@H](NC(=O)OC(C)(C)C)C(=O)NNC(=O)SCC(=O)N1CCCc2ccccc21 (stereo partly drawn) [Compound No. 45]
1270 | 14.3 | 2150 | CCc1ccccc1NC(=O)CSC(=O)NNC(=O)[C@H](COCc1ccccc1)NC(=O)OC(C)(C)C [Compound No. 46]
17900 | > 25 | 5890 | CC(C)(C)OC(=O)N[C@H](COCc1ccccc1)C(=O)NNC(=O)SCC(=O)N1CCCc2ccccc21 [Compound No. 49]
370 | 9.28 | 950 | CC(C)(C)OC(=O)N[C@@H](COCc1ccccc1)C(=O)NNC(=O)SCC(=O)N1CCc2ccccc2C1 [Compound No. 50]
1270 | 14.3 | 2150 | CCc1ccccc1NC(=O)CSC(=O)NNC(=O)[C@H](CCCCNC(=O)OCc1ccccc1)NC(=O)OC(C)(C)C [Compound No. 58]
> 25000 | > 25 | > 25000 | CC(C)(C)OC(=O)N[C@@H](CCC(=O)NC1c2ccccc2Oc2ccccc21)C(=O)NNC(=O)SCC(=O)N1CCCc2ccccc21 [Compound No. 60]
3670 | > 25 | 2150 | CCc1ccccc1NC(=O)CSC(=O)NNC(=O)[C@H](CCCNC(=N)N[N+](=O)[O-])NC(=O)OC(C)(C)C [Compound No. 62]
> 25000 | 13.7 | > 25000 | CCc1ccccc1NC(=O)CSC(=O)NNC(=O)[C@H](Cc1ncc[nH]1)NC(=O)OC(C)(C)C [Compound No. 65]
> 25000 | > 25 | > 25000 | C[C@H](CO)C(=O)NNC(=O)SCC(=O)N1CCCc2ccccc21 [Compound No. 68]
